{"source": "patent US20200360477A1", "about": "“INHALABLE FORMULATIONS FOR KINASE INHIBITION” (Aerovate Therapeutics, Inc., priority 2019, published 2020)", "key": {"FYN": {"target": "FYN (Homo sapiens, UniProt P06241)", "test": "KINOMEscan competition binding assay"}, "FRK": {"target": "FRK (Homo sapiens, UniProt P42685)", "test": "KINOMEscan competition binding assay"}, "CSF1R": {"target": "CSF1R (Homo sapiens, UniProt P07333)", "test": "biochemical"}, "ABL-1-nonphosphorolated [1]": {"target": "T1, ABL-1-nonphosphorolated (Homo sapiens, UniProt P00519)", "conditions": "ABL1"}, "PDGFR-β": {"target": "T2, PDGFR-β (Homo sapiens, UniProt P09619)", "T2 construct": "purchased Eurofins DiscoverX Corporation (KINOMEscan); host or cells: E. coli BL21-derived host (T7 phage) or HEK-293", "test": "KINOMEscan competition binding assay", "description": "(§1) The ligand-bound beads were blocked with excess biotin and washed with blocking buffer (SeaBlock (Pierce), 1% BSA, 0.05% Tween 20, 1 mM DTT) to remove unbound ligand and to reduce nonspecific binding. […] Kds were determined using an 11-point 3-fold compound dilution series with three DMSO control points.\n(§2) Each was a final volume of 0.02 ml."}, "PIK4CB": {"target": "T3, PIK4CB (Homo sapiens, UniProt Q9UBF8)", "T3 construct": "purchased Eurofins DiscoverX Corporation (KINOMEscan); host or cells: E. coli BL21-derived host (T7 phage) or HEK-293", "test": "KINOMEscan competition binding assay", "description": "as §1, §2"}, "RET": {"target": "T4, RET (Homo sapiens, UniProt P07949)", "T4 construct": "purchased Eurofins DiscoverX Corporation (KINOMEscan); host or cells: E. coli BL21-derived host (T7 phage) or HEK-293", "T4 sequence (P07949 29-1114)": "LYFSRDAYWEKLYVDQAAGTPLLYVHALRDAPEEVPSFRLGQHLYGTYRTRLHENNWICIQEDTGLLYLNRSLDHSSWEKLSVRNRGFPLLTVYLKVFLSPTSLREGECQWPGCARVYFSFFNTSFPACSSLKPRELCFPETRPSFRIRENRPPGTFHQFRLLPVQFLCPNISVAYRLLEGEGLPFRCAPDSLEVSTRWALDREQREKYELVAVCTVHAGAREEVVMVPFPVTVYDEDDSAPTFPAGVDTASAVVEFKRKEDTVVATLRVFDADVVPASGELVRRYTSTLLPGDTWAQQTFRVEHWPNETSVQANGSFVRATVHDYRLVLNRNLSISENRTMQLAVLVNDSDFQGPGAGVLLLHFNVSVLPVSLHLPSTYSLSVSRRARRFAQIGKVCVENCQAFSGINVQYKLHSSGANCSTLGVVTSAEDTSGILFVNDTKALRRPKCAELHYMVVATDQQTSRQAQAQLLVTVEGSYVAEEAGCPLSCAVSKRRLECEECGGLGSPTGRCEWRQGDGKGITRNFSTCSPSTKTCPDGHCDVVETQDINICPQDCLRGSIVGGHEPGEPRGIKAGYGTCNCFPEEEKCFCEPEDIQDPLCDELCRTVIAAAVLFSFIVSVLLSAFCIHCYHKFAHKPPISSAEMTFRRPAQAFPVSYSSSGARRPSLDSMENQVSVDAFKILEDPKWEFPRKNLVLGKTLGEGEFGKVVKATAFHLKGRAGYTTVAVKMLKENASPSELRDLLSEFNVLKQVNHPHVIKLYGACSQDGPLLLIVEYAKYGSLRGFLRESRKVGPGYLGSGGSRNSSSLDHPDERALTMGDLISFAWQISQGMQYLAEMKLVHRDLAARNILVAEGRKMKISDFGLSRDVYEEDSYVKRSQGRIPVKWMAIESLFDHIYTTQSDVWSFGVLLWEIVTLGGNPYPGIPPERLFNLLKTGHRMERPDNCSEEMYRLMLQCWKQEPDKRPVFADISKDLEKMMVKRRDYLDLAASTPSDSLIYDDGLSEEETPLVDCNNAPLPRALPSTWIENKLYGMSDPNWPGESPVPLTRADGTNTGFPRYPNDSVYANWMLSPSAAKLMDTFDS", "test": "KINOMEscan competition binding assay", "description": "as §1, §2"}, "FGR": {"target": "T5, FGR (Homo sapiens, UniProt P09769)", "T5 construct": "purchased Eurofins DiscoverX Corporation (KINOMEscan); host or cells: E. coli BL21-derived host (T7 phage) or HEK-293", "test": "KINOMEscan competition binding assay", "description": "as §1, §2"}, "LYN": {"target": "T6, LYN (Homo sapiens, UniProt P07948)", "T6 construct": "purchased Eurofins DiscoverX Corporation (KINOMEscan); host or cells: E. coli BL21-derived host (T7 phage) or HEK-293", "test": "KINOMEscan competition binding assay", "description": "as §1, §2"}, "VEGFR2": {"target": "T7, VEGFR2 (Homo sapiens, UniProt P35968)", "T7 construct": "purchased Eurofins DiscoverX Corporation (KINOMEscan); host or cells: E. coli BL21-derived host (T7 phage) or HEK-293", "T7 sequence (P35968 20-1356)": "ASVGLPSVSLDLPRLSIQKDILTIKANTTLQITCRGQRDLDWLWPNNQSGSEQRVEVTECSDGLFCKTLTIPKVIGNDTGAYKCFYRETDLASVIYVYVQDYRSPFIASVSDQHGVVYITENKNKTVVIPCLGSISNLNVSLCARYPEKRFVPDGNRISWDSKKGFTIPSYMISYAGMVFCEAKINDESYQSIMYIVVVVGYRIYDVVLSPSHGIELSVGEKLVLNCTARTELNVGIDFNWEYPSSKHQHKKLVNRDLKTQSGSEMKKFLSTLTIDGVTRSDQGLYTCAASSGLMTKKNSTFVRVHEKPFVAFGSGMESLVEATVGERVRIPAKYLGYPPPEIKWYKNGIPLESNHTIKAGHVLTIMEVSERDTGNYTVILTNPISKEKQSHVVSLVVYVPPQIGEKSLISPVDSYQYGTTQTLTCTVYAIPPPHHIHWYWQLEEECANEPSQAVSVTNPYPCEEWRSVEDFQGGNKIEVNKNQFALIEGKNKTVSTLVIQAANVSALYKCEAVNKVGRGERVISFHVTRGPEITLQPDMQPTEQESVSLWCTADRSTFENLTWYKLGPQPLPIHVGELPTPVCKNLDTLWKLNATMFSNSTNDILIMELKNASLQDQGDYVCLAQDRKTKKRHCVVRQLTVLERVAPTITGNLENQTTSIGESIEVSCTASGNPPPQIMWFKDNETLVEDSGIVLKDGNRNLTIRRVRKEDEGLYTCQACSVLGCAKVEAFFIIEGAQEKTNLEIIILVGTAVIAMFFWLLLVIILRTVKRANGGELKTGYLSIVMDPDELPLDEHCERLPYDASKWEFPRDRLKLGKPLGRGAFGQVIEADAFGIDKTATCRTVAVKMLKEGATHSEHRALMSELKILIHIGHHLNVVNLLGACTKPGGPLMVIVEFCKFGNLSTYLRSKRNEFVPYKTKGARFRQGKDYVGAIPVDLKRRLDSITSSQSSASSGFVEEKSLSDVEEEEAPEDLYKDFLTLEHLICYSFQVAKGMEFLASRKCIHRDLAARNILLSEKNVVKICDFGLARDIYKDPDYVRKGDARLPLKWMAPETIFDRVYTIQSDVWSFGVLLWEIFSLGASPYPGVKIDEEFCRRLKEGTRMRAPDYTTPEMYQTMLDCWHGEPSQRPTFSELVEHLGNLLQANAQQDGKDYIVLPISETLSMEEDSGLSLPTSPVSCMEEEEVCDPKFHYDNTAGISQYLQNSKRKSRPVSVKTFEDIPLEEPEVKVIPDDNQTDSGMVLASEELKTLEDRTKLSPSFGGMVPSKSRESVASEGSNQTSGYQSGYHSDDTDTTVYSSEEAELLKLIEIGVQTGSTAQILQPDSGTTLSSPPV", "test": "KINOMEscan competition binding assay", "description": "as §1, §2"}, "PDGFR-α": {"target": "T8, PDGFR-α (Homo sapiens, UniProt P16234)", "T8 construct": "purchased Eurofins DiscoverX Corporation (KINOMEscan); host or cells: E. coli BL21-derived host (T7 phage) or HEK-293", "T8 sequence (P16234 24-1089)": "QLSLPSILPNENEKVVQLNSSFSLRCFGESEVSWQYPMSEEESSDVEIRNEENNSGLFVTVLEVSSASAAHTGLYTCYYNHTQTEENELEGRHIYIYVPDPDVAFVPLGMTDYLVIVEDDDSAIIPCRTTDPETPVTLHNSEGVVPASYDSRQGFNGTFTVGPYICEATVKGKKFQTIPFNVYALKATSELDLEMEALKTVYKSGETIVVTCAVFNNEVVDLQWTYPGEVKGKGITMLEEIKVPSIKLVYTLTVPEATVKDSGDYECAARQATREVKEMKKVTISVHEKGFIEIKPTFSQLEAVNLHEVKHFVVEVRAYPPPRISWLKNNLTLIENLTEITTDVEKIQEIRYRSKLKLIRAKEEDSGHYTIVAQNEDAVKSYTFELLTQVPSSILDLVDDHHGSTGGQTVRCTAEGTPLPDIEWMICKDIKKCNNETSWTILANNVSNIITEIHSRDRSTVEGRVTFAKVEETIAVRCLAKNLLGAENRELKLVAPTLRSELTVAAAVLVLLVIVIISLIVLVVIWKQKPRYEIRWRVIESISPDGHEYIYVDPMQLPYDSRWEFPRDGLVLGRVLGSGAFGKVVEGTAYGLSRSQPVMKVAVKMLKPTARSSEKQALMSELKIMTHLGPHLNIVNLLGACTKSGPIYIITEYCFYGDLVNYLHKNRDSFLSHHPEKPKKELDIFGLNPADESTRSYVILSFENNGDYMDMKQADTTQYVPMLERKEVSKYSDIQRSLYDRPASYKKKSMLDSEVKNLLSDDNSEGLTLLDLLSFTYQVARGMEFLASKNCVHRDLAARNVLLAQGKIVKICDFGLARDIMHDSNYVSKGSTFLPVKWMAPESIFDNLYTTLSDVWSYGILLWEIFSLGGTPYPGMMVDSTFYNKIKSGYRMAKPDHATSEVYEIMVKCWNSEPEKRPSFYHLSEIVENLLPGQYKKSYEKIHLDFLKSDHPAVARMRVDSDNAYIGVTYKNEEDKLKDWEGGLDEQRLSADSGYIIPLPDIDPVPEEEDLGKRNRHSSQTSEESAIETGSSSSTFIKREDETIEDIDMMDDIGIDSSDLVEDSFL", "test": "KINOMEscan competition binding assay", "description": "as §1, §2"}, "DDR2": {"target": "T9, DDR2 (Homo sapiens, UniProt Q16832)", "T9 construct": "purchased Eurofins DiscoverX Corporation (KINOMEscan); host or cells: E. coli BL21-derived host (T7 phage) or HEK-293", "T9 sequence (Q16832 22-855)": "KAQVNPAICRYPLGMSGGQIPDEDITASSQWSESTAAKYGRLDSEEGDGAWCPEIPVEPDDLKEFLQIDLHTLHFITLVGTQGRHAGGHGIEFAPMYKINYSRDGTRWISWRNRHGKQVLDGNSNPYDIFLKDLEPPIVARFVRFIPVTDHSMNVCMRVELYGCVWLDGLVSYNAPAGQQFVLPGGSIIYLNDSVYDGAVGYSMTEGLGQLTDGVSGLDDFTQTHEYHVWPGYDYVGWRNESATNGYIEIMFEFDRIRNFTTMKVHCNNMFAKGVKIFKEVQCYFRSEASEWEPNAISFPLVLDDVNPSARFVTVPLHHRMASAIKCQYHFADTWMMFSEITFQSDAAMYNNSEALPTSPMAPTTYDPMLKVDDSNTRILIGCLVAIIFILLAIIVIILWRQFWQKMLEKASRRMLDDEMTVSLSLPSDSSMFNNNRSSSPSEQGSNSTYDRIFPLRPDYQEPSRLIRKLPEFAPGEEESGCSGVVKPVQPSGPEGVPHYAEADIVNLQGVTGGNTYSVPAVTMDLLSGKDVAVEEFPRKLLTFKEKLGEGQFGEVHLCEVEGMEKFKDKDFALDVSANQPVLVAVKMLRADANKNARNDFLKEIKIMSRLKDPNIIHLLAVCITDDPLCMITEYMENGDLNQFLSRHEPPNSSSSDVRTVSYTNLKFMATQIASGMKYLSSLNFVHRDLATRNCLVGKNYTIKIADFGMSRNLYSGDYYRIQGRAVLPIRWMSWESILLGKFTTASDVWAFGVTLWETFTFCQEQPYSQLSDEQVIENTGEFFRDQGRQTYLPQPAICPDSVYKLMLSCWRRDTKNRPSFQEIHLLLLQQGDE", "test": "KINOMEscan competition binding assay", "description": "as §1, §2"}, "SRC": {"target": "SRC (Homo sapiens, UniProt P12931)", "test": "KINOMEscan competition binding assay"}, "KIT": {"target": "KIT (Homo sapiens, UniProt P10721)", "test": "KINOMEscan competition binding assay"}, "ABL-1-nonphosphorolated [2]": {"target": "T1, ABL-1-nonphosphorolated", "test": "biochemical", "conditions": "read-out: Compound Activity Remaining at 1 μM (%)"}, "DDR1": {"target": "DDR1 (Homo sapiens, UniProt Q08345)", "test": "KINOMEscan competition binding assay"}, "HCK": {"target": "HCK (Homo sapiens, UniProt P08631)", "test": "KINOMEscan competition binding assay"}, "FLT4": {"target": "FLT4 (Homo sapiens, UniProt P35916)", "sequence (P35916 25-1363)": "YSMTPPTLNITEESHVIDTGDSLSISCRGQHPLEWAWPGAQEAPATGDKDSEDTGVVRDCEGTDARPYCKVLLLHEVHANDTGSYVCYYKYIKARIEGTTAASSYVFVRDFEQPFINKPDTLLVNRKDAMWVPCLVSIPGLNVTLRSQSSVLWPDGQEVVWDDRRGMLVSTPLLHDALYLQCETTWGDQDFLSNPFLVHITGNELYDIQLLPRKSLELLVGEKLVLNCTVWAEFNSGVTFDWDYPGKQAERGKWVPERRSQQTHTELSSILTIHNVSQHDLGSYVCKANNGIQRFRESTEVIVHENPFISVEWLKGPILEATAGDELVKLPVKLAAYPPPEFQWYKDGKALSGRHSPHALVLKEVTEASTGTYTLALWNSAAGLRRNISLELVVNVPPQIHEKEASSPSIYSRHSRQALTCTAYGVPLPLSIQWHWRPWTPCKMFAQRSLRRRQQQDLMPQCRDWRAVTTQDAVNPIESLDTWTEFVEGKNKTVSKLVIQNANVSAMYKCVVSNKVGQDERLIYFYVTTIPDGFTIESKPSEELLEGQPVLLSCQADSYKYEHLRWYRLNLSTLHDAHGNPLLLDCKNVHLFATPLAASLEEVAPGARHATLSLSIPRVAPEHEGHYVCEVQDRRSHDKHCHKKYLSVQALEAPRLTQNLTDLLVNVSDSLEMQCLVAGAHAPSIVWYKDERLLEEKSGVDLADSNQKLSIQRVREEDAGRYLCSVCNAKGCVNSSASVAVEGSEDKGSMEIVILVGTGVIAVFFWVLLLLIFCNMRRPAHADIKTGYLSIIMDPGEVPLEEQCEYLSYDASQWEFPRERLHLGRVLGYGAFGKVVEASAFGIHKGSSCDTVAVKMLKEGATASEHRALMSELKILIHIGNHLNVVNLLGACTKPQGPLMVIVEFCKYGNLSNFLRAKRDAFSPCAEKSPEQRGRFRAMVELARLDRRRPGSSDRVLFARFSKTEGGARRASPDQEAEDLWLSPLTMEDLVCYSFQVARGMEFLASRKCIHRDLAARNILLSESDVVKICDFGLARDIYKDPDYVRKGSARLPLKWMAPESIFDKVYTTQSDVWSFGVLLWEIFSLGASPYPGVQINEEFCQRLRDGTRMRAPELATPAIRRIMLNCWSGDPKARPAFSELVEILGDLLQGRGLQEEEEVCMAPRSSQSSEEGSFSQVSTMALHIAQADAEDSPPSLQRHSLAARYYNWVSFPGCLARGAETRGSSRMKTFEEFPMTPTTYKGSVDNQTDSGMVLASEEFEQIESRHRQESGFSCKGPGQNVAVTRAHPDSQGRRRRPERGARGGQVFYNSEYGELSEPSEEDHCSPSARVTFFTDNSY", "test": "KINOMEscan competition binding assay"}, "LCK": {"target": "LCK (Homo sapiens, UniProt P06239)", "test": "KINOMEscan competition binding assay"}, "[3]": {"target": "T10, phosphatidylinositol 5-phosphate 4-kinase type-2 gamma (PI42C) (Homo sapiens, UniProt Q8TBX8)", "T10 construct": "purchased Eurofins DiscoverX Corporation (KINOMEscan); host or cells: E. coli BL21-derived host (T7 phage) or HEK-293", "T10 sequence (Q8TBX8 1-421)": "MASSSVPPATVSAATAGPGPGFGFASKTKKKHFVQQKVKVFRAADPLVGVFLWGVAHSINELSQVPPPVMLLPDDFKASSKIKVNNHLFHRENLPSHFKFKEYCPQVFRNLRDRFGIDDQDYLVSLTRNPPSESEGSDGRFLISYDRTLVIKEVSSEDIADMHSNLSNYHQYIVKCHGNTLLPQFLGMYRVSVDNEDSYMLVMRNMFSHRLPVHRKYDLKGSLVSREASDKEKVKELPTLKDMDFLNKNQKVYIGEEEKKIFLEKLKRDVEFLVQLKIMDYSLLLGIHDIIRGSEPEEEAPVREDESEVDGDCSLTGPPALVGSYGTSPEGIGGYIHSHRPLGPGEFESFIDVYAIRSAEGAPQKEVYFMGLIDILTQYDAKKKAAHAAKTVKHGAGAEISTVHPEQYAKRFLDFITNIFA", "test": "KINOMEscan competition binding assay", "description": "The ligand-bound beads were blocked with excess biotin and washed with blocking buffer (SeaBlock (Pierce), 1% BSA, 0.05% Tween 20, 1 mM DTT) to remove unbound ligand and to reduce nonspecific binding. […] Test compounds were prepared as 111× stocks in 100% DMSO. Kds were determined using an 11-point 3-fold compound dilution series with three DMSO control points.\nas §2"}, "[4]": {"conditions": "read-out: Compound Activity Remaining at 1 μM (%)"}}, "note": "Like-named read-outs stand apart in the source and are kept apart here."}
{"compound": "COc1ccc(-c2cncc(N[C@@H](C)c3cccc(NC(=O)c4cncc(C)c4)c3)n2)cc1OC", "note": "[Compound B]", "values": [{"measurement": "Kd", "setting": "FYN", "value": 55, "unit": "nM"}, {"measurement": "remaining binding at 1 µM", "setting": "FYN; [4]", "value": 9.7, "unit": "%"}, {"measurement": "Kd", "setting": "FRK", "value": 11, "unit": "nM"}, {"measurement": "remaining binding at 1 µM", "setting": "FRK; [4]", "value": 5.3, "unit": "%"}, {"measurement": "Kd", "setting": "CSF1R", "value": 6.1, "unit": "nM"}, {"measurement": "remaining activity at 1 µM", "setting": "CSF1R; [4]", "value": 0.7, "unit": "%"}, {"measurement": "kinase found to be inhibited", "setting": "ABL-1-nonphosphorolated [1]", "value": "inhibited"}, {"measurement": "Kd", "setting": "PDGFR-β", "value": 0.82, "unit": "nM"}, {"measurement": "remaining binding at 1 µM", "setting": "PDGFR-β; 1 μM compound", "value": 0, "unit": "%"}, {"measurement": "Kd", "setting": "PIK4CB", "value": 150, "unit": "nM"}, {"measurement": "remaining binding at 1 µM", "setting": "PIK4CB; 1 μM compound", "value": 3.8, "unit": "%"}, {"measurement": "Kd", "setting": "RET", "value": 19, "unit": "nM"}, {"measurement": "remaining binding at 1 µM", "setting": "RET; 1 μM compound", "value": 3.9, "unit": "%"}, {"measurement": "Kd", "setting": "FGR", "value": 92, "unit": "nM"}, {"measurement": "remaining binding at 1 µM", "setting": "FGR; 1 μM compound", "value": 21, "unit": "%"}, {"measurement": "Kd", "setting": "LYN", "value": 24, "unit": "nM"}, {"measurement": "remaining binding at 1 µM", "setting": "LYN; 1 μM compound", "value": 7.3, "unit": "%"}, {"measurement": "Kd", "setting": "VEGFR2", "value": 15, "unit": "nM"}, {"measurement": "remaining binding at 1 µM", "setting": "VEGFR2; 1 μM compound", "value": 0.25, "unit": "%"}, {"measurement": "Kd", "setting": "PDGFR-α", "value": 4, "unit": "nM"}, {"measurement": "remaining binding at 1 µM", "setting": "PDGFR-α; 1 μM compound", "value": 0.35, "unit": "%"}, {"measurement": "Kd", "setting": "DDR2", "value": 19, "unit": "nM"}, {"measurement": "remaining binding at 1 µM", "setting": "DDR2; 1 μM compound", "value": 1.8, "unit": "%"}, {"measurement": "Kd", "setting": "SRC", "value": 130, "unit": "nM"}, {"measurement": "remaining binding at 1 µM", "setting": "SRC; [4]", "value": 6.4, "unit": "%"}, {"measurement": "Kd", "setting": "KIT", "value": 4.7, "unit": "nM"}, {"measurement": "remaining binding at 1 µM", "setting": "KIT; [4]", "value": 0, "unit": "%"}, {"measurement": "remaining activity at 1 µM", "setting": "ABL-1-nonphosphorolated [2]", "value": 3.3, "unit": "%"}, {"measurement": "Kd", "setting": "DDR1", "value": 3.5, "unit": "nM"}, {"measurement": "remaining binding at 1 µM", "setting": "DDR1; [4]", "value": 0.2, "unit": "%"}, {"measurement": "Kd", "setting": "HCK", "value": 36, "unit": "nM"}, {"measurement": "remaining binding at 1 µM", "setting": "HCK; [4]", "value": 3.3, "unit": "%"}, {"measurement": "Kd", "setting": "FLT4", "value": 18, "unit": "nM"}, {"measurement": "remaining binding at 1 µM", "setting": "FLT4; [4]", "value": 12, "unit": "%"}, {"measurement": "Kd", "setting": "LCK", "value": 22, "unit": "nM"}, {"measurement": "remaining binding at 1 µM", "setting": "LCK; [4]", "value": 1.1, "unit": "%"}]}
{"compound": "imatinib [Compound A, reference compound]", "values": [{"measurement": "kinase found to be inhibited", "setting": "[3]", "value": "inhibited"}, {"measurement": "Compound Activity Remaining at 1 μM (%)", "setting": "PDGFR-β; 1 μM compound", "value": 0.15, "unit": "%"}, {"measurement": "Compound Activity Remaining at 1 μM (%)", "setting": "PIK4CB; 1 μM compound", "value": 59, "unit": "%"}, {"measurement": "Kd", "setting": "RET", "value": "> 10000", "unit": "nM"}, {"measurement": "Compound Activity Remaining at 1 μM (%)", "setting": "RET; 1 μM compound", "value": 98, "unit": "%"}, {"measurement": "Compound Activity Remaining at 1 μM (%)", "setting": "FGR; 1 μM compound", "value": 70, "unit": "%"}, {"measurement": "Compound Activity Remaining at 1 μM (%)", "setting": "LYN; 1 μM compound", "value": 30, "unit": "%"}, {"measurement": "Compound Activity Remaining at 1 μM (%)", "setting": "VEGFR2; 1 μM compound", "value": 70, "unit": "%"}, {"measurement": "Compound Activity Remaining at 1 μM (%)", "setting": "PDGFR-α; 1 μM compound", "value": 0.95, "unit": "%"}, {"measurement": "Compound Activity Remaining at 1 μM (%)", "setting": "DDR2; 1 μM compound", "value": 0.8, "unit": "%"}, {"measurement": "Compound Activity Remaining at 1 μM (%)", "setting": "KIT; KIT, 1 μM compound", "value": 0.5, "unit": "%"}, {"measurement": "Kd", "setting": "FLT4; FLT4", "value": "> 10000", "unit": "nM"}, {"measurement": "Compound Activity Remaining at 1 μM (%)", "setting": "FLT4; FLT4, 1 μM compound", "value": 87, "unit": "%"}]}
